From ChEMBL document CHEMBL4613212, “Insights of synthetic analogues of anti-leprosy agents” (Bioorg Med Chem, 2019)
Values after ≈ are worked out from the molar mass of the structure shown.

Experiments:
[1] = tested on: Mycobacterium leprae; assay: Anti-leprotic activity against Mycobacterium leprae infected in BALB/c mouse assessed as time delay in bacterial multiplication in footpad at 0.0087 g/100g of diet administered via feed starting 60 or 75 day post infection up to 90 days by Shepard's kinetic method; type: functional
[2] = tested on: Mycobacterium leprae; assay: Anti-leprotic activity against Mycobacterium leprae infected in BALB/c mouse assessed as time delay in bacterial multiplication in footpad at 0.012 g/100g of diet administered via feed starting 60 or 75 day post infection up to 90 days by Shepard's kinetic method; type: functional
[3] = tested on: Mycobacterium leprae; assay: Anti-leprotic activity against Mycobacterium leprae subcultures at 4 weeks assessed as ATP level per 10^7 cells at 0.005 mg/L measured by bioluminescence assay (reference value: 462 +/- 64 pg); type: functional
[4] = tested on: Mycobacterium leprae; assay: Anti-leprotic activity against Mycobacterium leprae primary cultures at 4 weeks assessed as ATP level per 10^7 cells at 0.025 mg/L measured by bioluminescence assay (reference value: 314 +/- 46 pg); type: functional
[5] = tested on: Mycobacterium leprae; assay: Anti-leprotic activity against Mycobacterium leprae subcultures at 4 weeks assessed as [3H]thymidine uptake per 5 times 10^7 cells at 0.025 mg/L (reference value: 1.28 +/- 0.14 pmol); type: functional
[6] = tested on: Mycobacterium leprae; assay: Anti-leprotic activity against Mycobacterium leprae subcultures at 4 weeks assessed as ATP level per 10^7 cells at 0.01 mg/L measured by bioluminescence assay (reference value: 462 +/- 64 pg); type: functional
[7] = tested on: Mycobacterium leprae; assay: Anti-leprotic activity against Mycobacterium leprae primary cultures at 4 weeks assessed as [3H]thymidine uptake per 5 times 10^7 cells at 0.01 mg/L (reference value: 0.95 +/- 0.01 pmol); type: functional
[8] = tested on: Mycolicibacterium smegmatis; assay: Antimycobacterial activity against DDS resistant Mycobacterium smegmatis ATCC 607 […]; type: functional
[9] = tested on: Mycobacterium leprae; assay: Anti-leprotic activity against Mycobacterium leprae primary cultures at 4 weeks assessed as [3H]thymidine uptake per 5 times 10^7 cells at 0.025 mg/L (reference value: 0.95 +/- 0.01 pmol); type: functional
[10] = tested on: Mycobacterium leprae; assay: (§1) Inhibition of PGL1 synthesis in Mycobacterium leprae infected Swiss Webster mouse macrophages assessed as decrease in [U-14C]PA incorporation at 2 uM preincubated for 4 days post infection followed by [U-14C]PA addition and measured after 7 days by liquid scintillation counter analysis relative to control; type: functional
[11] = tested on: Mycobacterium leprae; assay: Anti-leprotic activity against Mycobacterium leprae infected in 538 CBA mouse assessed as number of Mycobacterium leprae in paw pads at 2 mg/kg administrated via gastric tube 5 times a week and measured 7 months post infection; type: functional
[12] = Drug concentration in rat blood at 400 mg/kg, sc administered as single dose; type: ADME, organism-based; conditions: in vivo
[13] = tested on: Mycobacterium leprae; assay: Anti-leprotic activity against Mycobacterium leprae infected in albino mouse assessed survival against infection at 400 mg/kg, sc administered 58 days post-infection and subsequent compound dosing at 200 mg/kg at 0.5, 1 or 2 months interval; type: functional
[14] = tested on: Mycobacterium leprae; assay: as §1, with “20” for “2”; type: functional
[15] = tested on: Mycobacterium leprae; assay: Anti-leprotic activity against Mycobacterium leprae subcultures at 4 weeks assessed as [3H]thymidine uptake per 5 times 10^7 cells at 0.01 mg/L (reference value: 1.28 +/- 0.14 pmol); type: functional
[16] = tested on: Rattus norvegicus; assay: Effect of metallo-protein haemoglobin in rat assessed as peak methemoglobin level at 400 mg/kg, sc administered as single dose; type: ADME, organism-based; conditions: in vivo
[17] = tested on: Mycobacterium leprae; assay: Antimicrobial activity against Mycobacterium leprae; type: functional
[18] = tested on: Mycobacterium leprae; assay: Anti-leprotic activity against Mycobacterium leprae subcultures at 4 weeks assessed as ATP level per 10^7 cells at 0.025 mg/L measured by bioluminescence assay (reference value: 462 +/- 64 pg); type: functional
[19] = tested on: Mycobacterium leprae; assay: Anti-leprotic activity against Mycobacterium leprae primary cultures at 4 weeks assessed as ATP level per 10^7 cells at 0.005 mg/L measured by bioluminescence assay (reference value: 314 +/- 46 pg); type: functional
[20] = tested on: Mycobacterium leprae; assay: Anti-leprotic activity against Mycobacterium leprae infected in CBA mouse assessed as number of Mycobacterium leprae in paw pads at 30 mg/kg administrated 5 times a week and measured 7.5 months post infection (reference value: 3.91 +/- 0.33 10^5); type: functional
[21] = Drug excretion in rat urine at 400 mg/kg, sc administered as single dose measured after 30 days; type: ADME, organism-based; conditions: read-out: Drug excretion
[22] = tested on: Mycobacterium leprae; assay: Anti-leprotic activity against Mycobacterium leprae primary cultures at 4 weeks assessed as [3H]thymidine uptake per 5 times 10^7 cells at 0.005 mg/L (reference value: 0.95 +/- 0.01 pmol); type: functional
[23] = tested on: Mycolicibacterium smegmatis; assay: Antimycobacterial activity against DDS sensitive Mycobacterium smegmatis ATCC 607 […]; type: functional
[24] = tested on: Mycobacterium leprae; assay: Anti-leprotic activity against Mycobacterium leprae infected in BALB/c mouse assessed as time delay in bacterial multiplication in footpad at 0.0001 g/100g of diet administered via feed starting 60 or 75 day post infection up to 90 days by Shepard's kinetic method; type: functional
[25] = tested on: Mycobacterium leprae; assay: Anti-leprotic activity against Mycobacterium leprae primary cultures at 4 weeks assessed as ATP level per 10^7 cells at 0.01 mg/L measured by bioluminescence assay (reference value: 314 +/- 46 pg); type: functional
[26] = tested on: Plasmodium berghei; assay: Antimalarial activity against Plasmodium berghei infected in albino mouse assessed survival against infection at 400 mg/kg, sc administered as single dose; type: functional
[27] = tested on: Mycobacterium leprae; assay: Anti-leprotic activity against Mycobacterium leprae subcultures at 4 weeks assessed as [3H]thymidine uptake per 5 times 10^7 cells at 0.005 mg/L (reference value: 1.28 +/- 0.14 pmol); type: functional
[28] = tested on: Mycobacterium leprae; assay: Anti-leprotic activity against Mycobacterium leprae infected in CBA mouse assessed as number of Mycobacterium leprae in paw pads at 10 mg/kg administrated 5 times a week and measured 7.5 months post infection (reference value: 3.91 +/- 0.33 10^5); type: functional
[29] = tested on: Mycobacterium leprae; assay: Anti-leprotic activity against Mycobacterium leprae infected in 538 CBA mouse assessed as number of Mycobacterium leprae in paw pads at 4 mg/kg administrated via gastric tube 5 times a week and measured 7 months post infection; type: functional

Nc1ccc(Sc2ccc(N)cc2)cc1 [4,4'-THIODIANILINE]
Time [1]: 68 days

CC(=O)Nc1ccc(S(=O)(=O)c2ccc(NC(C)=O)cc2Cl)cc1
Time [2]: 85 days

Nc1ccc(S(=O)(=O)c2ccc(N)cc2)cc1 [DAPSONE]
Activity [3]: 514 pg
Activity [4]: 0 pg
Activity [5]: 0 pmol
Activity [6]: 396 pg
Activity [7]: 0.79 pmol
MIC [8]: 3220 µg/mL (≈ 13000 µM)
Activity [9]: 0 pmol
inhibition at 2 µM [10]: 92%
Activity [11]: 0.025 ×10⁷ No_unit
Drug uptake [12]: 13.8 µg/mL
Survival [13]: 2 weeks
inhibition at 20 µM [14]: 91%
Activity [15]: 0.92 pmol
Activity [16]: 3.9 g/dL
MIC [17]: 15 µg/mL (≈ 60.4 µM)
Activity [18]: 0 pg
Activity [19]: 334 pg
Activity [20]: 0.22 ×10⁵ No_unit
dose excreted at 720 h [21]: 57%
Activity [22]: 0.98 pmol
MIC [23]: 8.1 µg/mL (≈ 32.6 µM)
Time [24]: >91 days
Activity [25]: 307 pg
Survival [26]: <1 weeks
Activity [27]: 1.37 pmol
Activity [28]: 0.27 ×10⁵ No_unit

CCN(CC)C(=S)Sc1ncc([N+](=O)[O-])cc1C#N
Activity [29]: 0.042 ×10⁷ No_unit
Activity [20]: 0.06 ×10⁵ No_unit
Activity [28]: 0.56 ×10⁵ No_unit
